# What was measured:
# [1] = tested on: U-937 cells; assay: Production of IL-12p70 and IL-10 by the dendritic cells (ELISA); format: cell-based, human
# Description: The culture supernatants are frozen at a temperature of −80° C. until the time of testing for the presence of cytokines. The presence of IL-12p70 and IL-10 is measured using ELISA kits obtained from “Endogen” (Woburn, Mass., USA).
# This phenomenon continues for the two weeks of treatment.
# [2] = tested on: U-937 human myeloid leukemia cells; assay: Dendritogenesis on U-937 human myeloid leukemia cells; format: cell-based; conditions: 1 nM
# Text: 2) On U-937 Human Myeloid Leukemia Cells
# [3] = tested on: TS/A (H-2^d) cells; assay: Cytotoxicity on TS/A mouse mammary adenocarcinoma cells in culture; format: cell-based
# Description: The mouse tumoral line TS/A(H-2^d) is a cell line of a spontaneous mammary adenocarcinoma of syngenic mice of BALB/c mice. They are cultured in mycoplasm-free controlled RPMI 1640 medium supplemented with endotoxin-free controlled fetal calf serum (Girco-Brio, 2 mM of glutamine, 100 U/ml of penicillin, 50 μg/ml of streptomycin, essential amino acids and sodium pyruvate.
# The cytotoxicity appears for doses of 50 μM.
# [4] = tested on: A549 cells; assay: Induction of vacuole production in the A549 tumoral cell line; format: cell-based, human
# Description: A549 cells were treated with 100 nM of compound according to example 9, for 12 hours.
# The A549 cells were obtained from the American Tissue Culture Collection (ATCC); they were inoculated at a density of 50 000 cells per well into 12-well plates and were cultured in RPMI medium supplemented with 5% fetal calf serum. To perform the treatment with the compound according to the invention, the cells are incubated with said compound (or with a control product) for 48 hours. The cells are then observed by phase-contrast microscopy every four hours to monitor the formation of vacuoles, and are then fixed with 0.4% paraformaldehyde solution in phosphate-buffered saline (PBS) at pH 7.4.
# To obtain photograph D indicated above, the process was performed as follows: after treating the cells, the culture medium is removed and the cells are washed with PBS at pH 7.4. The cells are incubated for 10 minutes with 1 μM solutions of monodansyl cadaverine (MDC). They are then rinsed thoroughly with PBS solution at 4° C. One drop of “Vectashield” solution (Vector Laboratories, CA) is added before mounting between microscope slide and cover slip: the cells are then observed rapidly under the microscope and photographed.
# The A549 cells treated as indicated above with the compound according to example 9 were also examined by electron microscopy. To examine these A549 cells by electron microscopy, they are fixed using a solution of PBS containing 3% glutaraldehyde, taken up in resin (EPON) and finally cut into thin slices using an ultra-microtome. These slices are then placed on 200-mesh copper grilles and examined by electron microscopy. […] In this FIG. 11, the letters used have the following meanings: N=nucleus; C=cytoplasm; M=mitochondria; Vi=intracytoplasmic vesicles; Ve=extracellular vesicles; MLB=multilamellar body.
smiles,measurement,setting,value
"CC(C)CCC[C@@H](C)[C@H]1CC[C@H]2[C@@H]3C[C@@H](NCCc4c[nH]cn4)[C@@]4(O)C[C@@H](O)CC[C@]4(C)[C@H]3CC[C@]12C [Example 9, cholestane-3β,5α-diol-6β-N-[2-ethylamino(1H-imidazol-4-yl)]]",production of the p70 subunit of IL-12,"[1]; from 36 hours after the start of the treatment, continues for the two weeks of treatment",stimulates the production of the p70 subunit of IL-12
same,transcription/production of IL-10,[1]; treatments extending over a period of two weeks,does not stimulate the transcription of IL-10
same,formation of rosettes (aggregate of entangled cells),[2]; after treatment for 5 days,formation of a large number of rosettes
same,size of the dendrites,[2]; after treatment for 5 days,up to 100 μm
same,induction of differentiation of the U-937 cells into dendritic cells,"[2]; treatment for 2 days, after 10 ng/ml PMA",appearance of dendritic cells
same,toxicity on TS/A cells,"[3]; doses of 5 nM and 1 μM, irrespective of the incubation time",no toxicity is observed
same,dose at which cytotoxicity on TS/A appears,[3]; in vitro,50 µM
same,induction of vacuole production in A549 cells,"[4]; 100 nM, 12 hours",massive production of cytoplasmic vacuoles
same,dose dependence of the vacuole effect,[4]; A549 cells,dose-dependent
same,time after the treatment at which the vacuole effect appears,[4]; A549 cells,six
same,time after the treatment at which the vacuole effect reaches a maximum,[4]; A549 cells,12 h
same,electron microscopy of treated A549 cells,[4]; FIG. 11.2,numerous vacuoles and mitochondria are also observed in the cytoplasm
same,reversibility of the vacuole effect,[4]; growth medium replaced with fresh medium,reversible
